Reference: patent publication US5788964A, “Method for sensitization of cancer cells for killer cell mediated lysis” (Orion-Yhtyma Oy, priority 1996, dated 1998)

Tests used:
P815 cells = test: 51Cr assay, killing of P815 cells by LAK cells from DBA/N2 mice (Example 2); conditions: Mus musculus, P815, 4 h, read-out: P815 cells killed by LAK cells
Experimental: (§1) For the generation of LAK cells, 2×10^6 /ml of spleen cells from female DBA/N2 mice were cultured for 5 days in RPMI-1640 medium supplemented with 10%FCS, 5×10^-5 M 2-mercaptoethanol and 500 U/mI of human recombinant interleukin-2 at 370C in humidified air containing 5% CO2.

P815 tumor cells = test: Winn assay, pretreated P815 cells mixed with LAK cells 1:25 (Example 2); format: in vivo, DBA/2 mice; conditions: target:effector 1:25, s.c., groups of 4
Experimental: as §1

Nb2 rat lymphoma = test: Target cell destruction by cytolytic lymphocytes (CTL) generated in mixed cultures (51Cr release); conditions: for target cell lysis, effector cells pretreated (in words): CTL effectors pretreated; for lysis of treated targets by treated effectors (in words) / target cell lysis, target cells treated (in words): CTL effectors; for lysis of treated targets by treated effectors (in words): both treated; for target cell lysis, target cells treated (in words): target cells treated for 4 h prior to the cytotoxic reaction
Experimental: (§2) Target cells were labeled with ^51 Cr for 1 hr, then washed. The specific ^51 Cr release was determined after 4 hours of incubation at 37° C., 5% CO2 (target/effector 1:25).
Target cells: Nb2 rat lymphoma
Effector cells: Cytotoxic Tlymphocytes (CTL) generated in mixed cultures,
Responder: Spleen cells of Fischer rats. Stimulator: Nb2 cells (thymic

P815 tumor = P815 tumor growth, drug in drinking water with or without LAK (Example 3); format: in vivo, mice; conditions: drinking water TX 100 μg/ml, TO 400 μg/ml; LAK 1:25 then weekly for 3 weeks
[1] = tested on: P815 (NK resistant murine mastocytoma); test: LAK cell mediated cytotoxicity (51Cr release), rat LAK; conditions: for target cell lysis, effector cells pretreated (in words): LAK effectors pretreated; for lysis of treated targets by treated effectors (in words) / target cell lysis, target cells treated (in words): LAK effectors; for lysis of treated targets by treated effectors (in words): both treated; for target cell lysis, target cells treated (in words): target cells treated for 4 h prior to the cytotoxic reaction
Experimental: Rat spleen cells were used as effector cells either without activation (NK cells), or after treatment with human IL-2 (LAK), or after stimulation with the Nb2 rat lymphoma in mixed cultures (CTL). The Yac-1 murine lymphoma was used as a target for NK cells, the P815 mastocytoma for LAK cells and Nb2 cells for CTL. […] Target cells were labeled with ^51 Cr for 1 hr, then washed. The specific ^51 Cr release was determined after 4 hours of incubation at 37° C., 5% CO2 (target/effector 1:25).
Target cells: P815 (NKresistant murine mastocytoma)
Effectar cells: Spleen cells of Fischer rats were cultured in medium
supplemented with 500 U/ml riL2 for 6 days at 37° C. and 5%

Yac1 murine lymphoma = test: NK cell mediated cytotoxicity (51Cr release); conditions: for target cell lysis, effector cells pretreated (in words): NK effectors pretreated; for lysis of treated targets by treated effectors (in words) / target cell lysis, target cells treated (in words): NK effectors; for lysis of treated targets by treated effectors (in words): both treated; for target cell lysis, target cells treated (in words): target cells treated for 4 h prior to the cytotoxic reaction
Experimental: as §2
Target cells: Yac1 murine lymphoma
Effector cells: Spleen lymphocytes of female Fishner rats

P815 mastocytoma = test: Immunotherapy of P815 mastocytoma, drug by gavage and LAK cells (Example 6); format: in vivo, DBA/2 mice; conditions: 10 mg/kg/day by gavage, with or without LAK as labelled
Experimental: DBA/2 female mice were injected s. c. with 10^4 P815 tumor cells. […] Two days later 25×10^4 LAK cells were given i.p., LAK was injected three times more, four days apart. Drug treatment was maintained from day 14 until day 30.

tumor estrogen receptors = conditions: background statement; cited from earlier work

SMILES	cytotoxicity at 5 µM (P815 cells)	animals protected / survival (P815 tumor cells)	target cell lysis, effector cells pretreated (in words) (Nb2 rat lymphoma)	lysis of treated targets by treated effectors (in words) (Nb2 rat lymphoma)	target cell lysis, target cells treated (in words) (Nb2 rat lymphoma)	tumor free animals (P815 tumor)	target cell lysis, effector cells pretreated (in words) [1]	lysis of treated targets by treated effectors (in words) [1]	target cell lysis, target cells treated (in words) [1]	target cell lysis, effector cells pretreated (in words) (Yac1 murine lymphoma)	lysis of treated targets by treated effectors (in words) (Yac1 murine lymphoma)	target cell lysis, target cells treated (in words) (Yac1 murine lymphoma)	partial regression (P815 mastocytoma)	cytotoxicity at 1 µM (P815 cells)	inhibition of estrogen-induced growth (tumor estrogen receptors)
CN(C)CCOc1ccc(/C(=C(/CCCl)c2ccccc2)c2ccccc2)cc1 [TO, toremifene]	51%	1 of 4	no such enhancing effect	lysed treated targets as efficiently as did nontreated effectors	enhanced target cell lysis in a dose dependent fashion	one	no such enhancing effect	lysed treated targets as efficiently as did nontreated effectors	enhanced target cell lysis in a dose dependent fashion	no such enhancing effect	lysed treated targets as efficiently as did nontreated effectors	enhanced target cell lysis in a dose dependent fashion	one		
CC/C(=C(\c1ccccc1)c1ccc(OCCN(C)C)cc1)c1ccccc1 [TX, tamoxifen]		killed all the animals	no such enhancing effect	lysed treated targets as efficiently as did nontreated effectors	enhanced target cell lysis in a dose dependent fashion		no such enhancing effect	lysed treated targets as efficiently as did nontreated effectors	enhanced target cell lysis in a dose dependent fashion	no such enhancing effect	lysed treated targets as efficiently as did nontreated effectors	enhanced target cell lysis in a dose dependent fashion	one	52%	inhibit estrogen-induced growth by competitive antagonism of tumor estrogen receptors
